Each structure is given as a SMILES string.

Experiment [1] concerns the target T1, Angiotensin II receptor (Homo sapiens, UniProt P30556+P50052).
T1 sequence (P30556 whole entry): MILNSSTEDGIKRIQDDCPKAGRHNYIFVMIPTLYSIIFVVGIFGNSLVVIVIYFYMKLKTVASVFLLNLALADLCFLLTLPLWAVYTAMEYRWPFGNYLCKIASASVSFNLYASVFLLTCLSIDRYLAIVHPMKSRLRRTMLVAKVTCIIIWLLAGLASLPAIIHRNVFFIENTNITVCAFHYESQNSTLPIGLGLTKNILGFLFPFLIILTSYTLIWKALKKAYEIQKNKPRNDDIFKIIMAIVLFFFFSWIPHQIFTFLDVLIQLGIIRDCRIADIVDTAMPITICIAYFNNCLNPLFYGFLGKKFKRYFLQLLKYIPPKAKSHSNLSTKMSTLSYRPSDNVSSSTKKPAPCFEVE
T1 sequence (P50052 whole entry): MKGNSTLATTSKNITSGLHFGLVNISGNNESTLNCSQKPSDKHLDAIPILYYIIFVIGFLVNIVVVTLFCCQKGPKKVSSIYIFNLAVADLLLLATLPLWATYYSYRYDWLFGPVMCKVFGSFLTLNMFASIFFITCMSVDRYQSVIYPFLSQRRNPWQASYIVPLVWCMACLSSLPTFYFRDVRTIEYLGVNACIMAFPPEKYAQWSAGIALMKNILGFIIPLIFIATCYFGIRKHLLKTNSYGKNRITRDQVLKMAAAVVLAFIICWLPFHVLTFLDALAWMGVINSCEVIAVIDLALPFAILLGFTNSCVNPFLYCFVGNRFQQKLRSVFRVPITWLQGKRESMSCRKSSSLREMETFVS
In words: Inhibitory activity against Angiotensin II receptor was determined. Format: protein assay.

Experiment [2] concerns the target T1, Angiotensin II receptor. In words: Inhibitory activity against Angiotensin II receptor. The format is protein assay.
The subject of experiment [3] is Rattus norvegicus. In words: Dose required to lower the blood pressure by 30 mm Hg on intravenous administration in the renal hypertensive rat; orally inactive. The format is functional.
Experiment [4] concerns Rattus norvegicus. As to the kind of experiment: Dose required to lower the blood pressure by 30 mm Hg on intravenous administration in the renal hypertensive rat was determined. The format is functional.

Usually IC50 stands for the concentration at which inhibition is half-maximal. Higher therefore signals lower potency. As to `CCCCc1nc(Cl)c(COC)n1Cc1ccc(N2C(=O)C3(C)CC(C)(C(=O)O)CC(C)(C3)C2=O)cc1` (stereo not drawn), the concentration for half-maximal inhibition (IC50) at Angiotensin II receptor [1] is above 10000 nM.

As for `CCCCc1nc(Sc2ccccc2)c(C=O)n1Cc1ccc2c(c1)C1c3ccccc3C2C(c2nn[nH]n2)C1c1nn[nH]n1` (stereo not drawn), at Angiotensin II receptor [2], the IC50 came out at 460 nM. Further, the ED30 with Rattus norvegicus [3] was 0.2 mg/kg. `CCCCc1nc(Cl)c(C=O)n1Cc1ccc2c(c1)C(O)(C(=O)O)c1ccccc1-2` (stereo not drawn) yielded an IC50 against Angiotensin II receptor [2] above 10000 nM. For the compound `CCCCc1nc(Cl)c(C=O)n1Cc1ccc2c(c1)C(C(=O)O)c1ccccc1-2` (stereo not drawn), on Angiotensin II receptor [2], the half-inhibitory concentration (IC50) was found to be 3600 nM. `CCCCc1nc(Cl)c(C=O)n1Cc1ccc2c(c1)C1c3ccccc3C2C(c2nn[nH]n2)C1c1nn[nH]n1` (stereo not drawn) registered a concentration for half-maximal inhibition (IC50) at Angiotensin II receptor [2] of 90 nM. In the experiment on Rattus norvegicus [3], the ED30 came out at 0.115 mg/kg. At Angiotensin II receptor [2], `CCCCc1nc(Cl)c(C=O)n1Cc1ccc2c(c1)C(Cc1nn[nH]n1)c1ccccc1-2` (stereo not drawn) gave an IC50 of 5000 nM.

In turn, `CCCCc1nc(Cl)c(C=O)n1Cc1ccc2c(c1)C1c3ccccc3C2C(C(=O)O)C1C(=O)O` (single isomer, unassigned) showed a half-inhibitory concentration (IC50) against Angiotensin II receptor [2] of 320 nM. For the compound `CCCCc1nc(Cl)c(C=O)n1Cc1ccc2c(c1)C1c3ccccc3C2C(C(=O)O)C1C(=O)O` (stereo in doubt), on Angiotensin II receptor [2], the IC50 was determined as 1100 nM. On Angiotensin II receptor [2], `CCCCc1nc(Cl)c(C=O)n1Cc1ccc2c(c1)C1c3ccccc3C2C(C(=O)O)C1C(=O)O` (stereo in doubt; 3) yielded an IC50 of 1100 nM. On the same count and under the same terms, the result for `CCCCc1nc(Cl)c(C=O)n1Cc1ccc2c(c1)C1c3ccccc3C2C(C(=O)O)C1C(=O)O` (stereo in doubt; 5) reads 220 nM.

In the experiment with Rattus norvegicus [4], `CCCCc1nc(Cl)c(CO)n1Cc1ccc(-c2ccccc2-c2nnn[nH]2)cc1` [LOSARTAN] returned an ED30 of 0.8 mg/kg.

The values above are taken from ChEMBL document CHEMBL1128117, “Dibenzobicyclo[2.2.2.]octane angiotensin II receptor antagonists” (Bioorg Med Chem Lett, 1995).
